Results on four compounds are retold here after US20240368112A1, “BENZYLTHIOPHENE DERIVATIVES” (Rosalind Franklin University of Medicine & Science, priority 2021, published 2024).

Structures are written as SMILES.

One assay addresses STAT3 (Homo sapiens (Human), UniProt P40763). Kind of assay: Inhibition of IFN-induced STAT3 phosphorylation in GBM cells (western blotting). The class given is cell-based. Background: A western blot detects proteins with antibodies after separation by electrophoresis.
For the next assay, the target named is STAT1 (Homo sapiens (Human), UniProt P42224). Kind of assay: IFN-induced STAT1 phosphorylation in GBM cells (western blotting). The class given is cell-based.
A further assay has as its system MCF7 breast cancer cells. Kind of assay: MTS cell viability assay in MCF7 breast cancer cells. As to conditions: 72 hours treatment, concentration not given. The class given is cell-based. As to the method:
MTS assay was used to determine the cell viability for all compounds tested. Computational docking scores were used to evaluate potential for STAT 3 inhibition (FIG. 9 and Table 3). MCF7 breast cancer cells were grown until 80-90% confluence. Cells were then transferred to a Costar 96-well plate with about 3000 cells per well. Cells were incubated for 24 hours. After incubation cells were treated with appropriate compounds and concentration for 72 hours. Twenty microliters of MTS solution was added to each well and incubated for 2 hours. The plate was then analyzed using […].
(In general: Formazan colour is commonly taken as a measure of viable cells.)

The subject of a further assay is MT300 GBM cells. The assay is described as follows: Antiproliferative activity, CellTiter Glo assay, MT300 GBM cells. The class given is cell-based. As to conditions: 72 h, read-out: IC50 (proliferation).
The test system of a further assay is LN299 GBM cells. Kind of assay: Antiproliferative activity, CellTiter Glo assay, LN299 GBM cells. The class given is cell-based. As to conditions: 72 h, unit misprinted as 'and', read-out: IC50 (proliferation). For orientation: ATP-based viability assays read luminescence as a measure of living cells.
In the next assay the test system is parental GBM cells. The assay is described as follows: Proliferation of parental (empty vector) GBM cells, Incucyte live cell analysis. The class given is cell-based. Particulars: parental (EV) GBM cells.
The next assay has as its system STAT3-KO GBM cells. Kind of assay: Proliferation of STAT3-knockout GBM cells, Incucyte live cell analysis. The class given is cell-based.
The subject of a further assay is MT330 glioma xenografts. The assay is described as follows: Orthotopic MT330 glioma xenografts in mice, bioluminescent imaging. The class given is in vivo. Particulars: 20 mg/Kg in DMSO, into the peritoneum three times per week, female mice, BLI. As to the method:
BLI pictures were taken at Day 21.
In brief, 10^6 luciferase-expressing MT330 GBM cells were injected orthotopically into the brains of female […] mice. […] Tumor growth was monitored by BLI two times per week as we have previously described.

Chain of STAT1 (P42224 whole entry): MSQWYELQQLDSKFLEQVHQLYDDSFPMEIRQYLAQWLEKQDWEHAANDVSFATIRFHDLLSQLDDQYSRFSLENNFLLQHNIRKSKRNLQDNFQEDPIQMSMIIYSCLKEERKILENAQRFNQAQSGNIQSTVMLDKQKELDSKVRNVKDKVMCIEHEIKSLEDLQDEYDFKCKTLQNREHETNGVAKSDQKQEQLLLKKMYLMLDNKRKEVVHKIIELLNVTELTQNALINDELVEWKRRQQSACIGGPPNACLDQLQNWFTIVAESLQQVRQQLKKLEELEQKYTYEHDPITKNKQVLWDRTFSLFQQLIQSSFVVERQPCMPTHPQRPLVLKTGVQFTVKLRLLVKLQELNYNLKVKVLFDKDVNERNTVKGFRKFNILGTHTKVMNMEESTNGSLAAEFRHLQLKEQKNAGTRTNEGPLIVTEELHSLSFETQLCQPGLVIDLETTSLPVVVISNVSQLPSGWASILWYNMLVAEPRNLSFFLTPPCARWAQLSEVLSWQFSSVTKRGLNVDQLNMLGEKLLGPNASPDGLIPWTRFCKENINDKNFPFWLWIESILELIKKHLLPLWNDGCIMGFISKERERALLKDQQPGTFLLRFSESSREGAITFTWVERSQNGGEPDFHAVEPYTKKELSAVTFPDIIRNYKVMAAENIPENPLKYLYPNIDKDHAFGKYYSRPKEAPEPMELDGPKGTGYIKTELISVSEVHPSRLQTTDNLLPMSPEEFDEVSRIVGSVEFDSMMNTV
Chain of STAT3 (P40763 whole entry): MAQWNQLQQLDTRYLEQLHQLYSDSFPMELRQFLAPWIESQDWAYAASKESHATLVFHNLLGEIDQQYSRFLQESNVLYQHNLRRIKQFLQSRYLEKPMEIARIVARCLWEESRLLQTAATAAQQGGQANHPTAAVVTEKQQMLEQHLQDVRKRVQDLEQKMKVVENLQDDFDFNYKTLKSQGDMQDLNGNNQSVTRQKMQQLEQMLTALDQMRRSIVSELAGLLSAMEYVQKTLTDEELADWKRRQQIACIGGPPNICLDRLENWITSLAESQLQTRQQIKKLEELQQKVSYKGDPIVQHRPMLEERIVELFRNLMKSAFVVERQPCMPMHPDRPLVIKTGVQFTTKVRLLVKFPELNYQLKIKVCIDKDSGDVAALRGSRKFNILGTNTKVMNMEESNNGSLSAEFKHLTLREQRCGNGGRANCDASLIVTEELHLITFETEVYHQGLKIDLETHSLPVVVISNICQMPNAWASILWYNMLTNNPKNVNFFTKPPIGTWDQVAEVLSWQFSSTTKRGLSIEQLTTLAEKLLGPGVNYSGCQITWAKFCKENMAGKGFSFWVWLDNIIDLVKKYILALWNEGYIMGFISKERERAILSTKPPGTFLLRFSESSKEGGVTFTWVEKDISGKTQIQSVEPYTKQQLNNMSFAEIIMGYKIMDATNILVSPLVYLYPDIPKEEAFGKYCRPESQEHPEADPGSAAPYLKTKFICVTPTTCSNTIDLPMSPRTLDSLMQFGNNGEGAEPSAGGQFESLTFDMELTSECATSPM

Regarding `N#Cc1cc(Cc2ccccc2)sc1NC(=O)c1cc2ccccc2o1` [Compound 5, N-(5-benzyl-3-cyanothiophen-2-yl)benzofuran-2-carboxamide], the “Inhibition of STAT3 phosphorylation” value at STAT3 is on record as “potently block STAT3 phosphorylation at submicromolar levels”. The “Effect on STAT1 phosphorylation” value at STAT1 is listed as “no effect”. Besides, the Percent inhibition in the assay on MCF7 breast cancer cells was 65.67%.

Regarding `CC(C)(Oc1ccccc1)C(=O)Nc1sc(Cc2ccccc2)cc1C#N` [Compound 7, N-(5-benzyl-3-cyanothiophen-2-yl)-2-methyl-2-phenoxypropanamide], the “Inhibition of STAT3 phosphorylation” value on STAT3 was “potently block STAT3 phosphorylation at submicromolar levels”. Further, the “Effect on STAT1 phosphorylation” value on STAT1 is given as “no effect”. In addition, the Percent inhibition with MCF7 breast cancer cells worked out at 23.33%.

Turning to `N#Cc1cc(Cc2ccccc2)sc1NC(=O)COc1ccccc1` [Compound 1, N-(5-benzyl-3-cyanothiophen-2-yl)-2-phenoxyacetamide], the “Effect on STAT1 phosphorylation” value on STAT1 is “no effect”. Moreover, the IC50 came to 85 nM in the assay on MT300 GBM cells and 95 nM with LN299 GBM cells. Also, the values for the Antiproliferative effect result with parental GBM cells and in the assay with STAT3-KO GBM cells were “sensitive” and “resistant”, respectively. The “Effect on orthotopic GBM tumor xenografts” value in the assay on MT330 glioma xenografts was “markedly reduced”. The compound further came in with a Percent inhibition in the assay with MCF7 breast cancer cells of 28.06%.

With `N#Cc1cc(Cc2ccccc2)sc1NC(=O)COc1cccc(C(F)(F)F)c1` [Compound 6, N-(5-benzyl-3-cyanothiophen-2-yl)-2-(3-(trifluoromethyl)phenoxy)acetamide], the Percent inhibition with MCF7 breast cancer cells amounted to 51.00%.
